Common to all, as to experiment: DTP human tumour cell line panel, 48 h
Experiment [1] relates to 786-0 renal.
The subject of experiment [2] is A549 NSCLC.
For experiment [3], the system named is HCC-2998 colon.
Experiment [4] deals with HCT-15 colon.
In experiment [5] the test system is HT29 colon.
The subject of experiment [6] is SF-268 CNS.
Experiment [7] has as its system SF-295 CNS.
Experiment [8] has as its system SK-MEL-5 melanoma.
The subject of experiment [9] is SR leukemia.
In experiment [10] the test system is UACC-257 melanoma.
Experiment [11] concerns SNB-75 CNS.

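Grown in 96-well plates, cells were treated for 48 hours with each compound at five concentrations. Insufficient inhibition: endpoint recorded as highest concentration tested. TGI marks complete inhibition of growth.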

One may read the TGI as the concentration giving total growth inhibition. A low value points to more potent growth arrest. As to `O=C(c1ccccn1)C1(N2CCCCC2)CCCCC1`, the TGI in [1] was over 100 µM; in experiment [2] it was over 100 µM; in experiment [3], over 100 µM; in [4], over 100 µM; in experiment [5] it was over 100 µM; in [6] it was 64.3 µM. Further, the TGI in [7], in [8], in experiment [9] and in experiment [10] was over 100 µM each time.
For the molecule `O=S(=O)(c1ccccc1)c1cccc2c1NCCC2`, the TGI in [1], in [2], in [3], in [4], in experiment [5] and in [6] was over 100 µM each time. Also, the TGI was over 100 µM in experiment [7]; 52 µM in experiment [8]; over 100 µM in [11]; over 100 µM in experiment [9]; 76.9 µM in experiment [10].
With `c1ccc2c3[nH]c(c2c1)=Nc1ccc(cc1)-c1nc2cc(ccc2o1)N=c1[nH]c(c2ccccc12)=Nc1ccc2nc(oc2c1)-c1ccc(cc1)N=3`, the TGI in experiment [1], in experiment [3], in experiment [4], in experiment [5], in [6] and in experiment [7] was over 100 µM in each case. Besides, the TGI in [8], in [9] and in experiment [10] was over 100 µM in each case.
Take `Cc1cccc(Cn2c3c(c4cc(O)ccc42)C(=O)c2ccccc2C3=O)c1`: the TGI was 26.6 µM in experiment [1]; over 100 µM in experiment [2]; over 100 µM in experiment [4]; over 100 µM in experiment [5]; over 100 µM in experiment [6]; 21.9 µM in [7]. Moreover, the TGI is over 100 µM in experiment [8], 8.63 µM in experiment [11], over 100 µM in experiment [9] and over 100 µM in [10].
Consider `C[C@]12CC[C@H](O)CC1=CC[C@@H]1[C@@H]2CC[C@]2(C)C(=N/N)/C(=N\O)C[C@@H]12`, for which the TGI in experiment [1], in [2], in [4], in experiment [5], in [6] and in experiment [7] was over 100 µM each time. Moreover, the TGI in experiment [8] is over 100 µM; in experiment [11], 30.5 µM; in experiment [9], over 100 µM; in [10], over 100 µM.
Take `CC1=Nc2ccccc2OC(C)=C1N=Nc1ccc2nc(C)[nH]c2c1`: the concentration for total growth inhibition (TGI) in experiment [1], in experiment [2], in experiment [3], in experiment [4], in experiment [5] and in [6] was over 100 µM in each case. Moreover, the TGI in [7], in experiment [11], in experiment [9] and in [10] was over 100 µM each time.
As to `N[C@@H](CCC(=O)NCP(=O)(O)O)C(=O)O`, the TGI in experiment [1], in experiment [2], in experiment [3], in [4], in experiment [5] and in [7] was over 100 µM throughout. Besides, the total growth inhibition concentration (TGI) in [8], in [9] and in experiment [10] was over 100 µM throughout.
As to `Nc1ncnc2c1[nH]c(=O)n2-c1ccccc1`, the concentration for total growth inhibition (TGI) in experiment [1], in [2], in experiment [3], in experiment [4], in [5] and in experiment [6] was over 100 µM in each case. For the same molecule, the TGI in experiment [7], in [8], in experiment [9] and in experiment [10] was over 100 µM throughout.
On to `CCOC(=O)Nc1sc2c(c1C#N)CCCC2`, for which the TGI in experiment [1], in [3], in [4], in [5], in [6] and in experiment [7] was over 100 µM throughout. For the same molecule, the TGI in experiment [8], in experiment [9] and in experiment [10] was over 100 µM in each case.
For `Oc1ccc(Cc2cc(Cc3ccc(O)cc3)cc(Cc3ccc(O)cc3)c2)cc1`, the total growth inhibition concentration (TGI) in experiment [1], in [2], in [3], in experiment [4], in [5] and in [6] was over 50 µM in each case. The TGI in experiment [7], in experiment [11], in experiment [9] and in experiment [10] was over 50 µM each time.
On to `Nn1c(Nc2ccc(S(=O)(=O)Nc3ncccn3)cc2)nnc(/C=C/c2c(O)ccc3ccccc23)c1=O`, for which the TGI was 73.6 µM in experiment [1]; over 100 µM in [2]; 57.7 µM in experiment [3]; over 100 µM in experiment [4]; over 100 µM in experiment [5]; over 100 µM in experiment [6]. Moreover, the TGI is 66.5 µM in experiment [11], 66.8 µM in experiment [9] and 55.2 µM in [10].
Take `CC(=O)Nn1c(=S)[nH]c2ccccc21`: the TGI in experiment [1], in [2], in [3], in [4], in experiment [5] and in experiment [6] was over 100 µM each time. Also, the TGI in experiment [7], in [8], in experiment [9] and in experiment [10] was over 100 µM throughout.
As to `NS(=O)(=O)c1nnc(NC(=O)Nc2ccc(Cl)c(Cl)c2)s1`, the TGI in experiment [1] is 67.5 µM; in experiment [2], over 100 µM; in experiment [3] it was 34.8 µM; in experiment [4], 50.7 µM; in experiment [5] it was 37.9 µM; in experiment [6] it was 67.5 µM. Besides, the TGI in [7] is over 100 µM; in experiment [8], 30.8 µM; in experiment [9], 60.6 µM; in [10], 42 µM.
